Target: Cytidine deaminase (Mus musculus, UniProt P56389)
Experiment: Compound was tested for the inhibitory constant for mouse kidney cytidine deaminase

Sequence of Cytidine deaminase (P56389 whole entry): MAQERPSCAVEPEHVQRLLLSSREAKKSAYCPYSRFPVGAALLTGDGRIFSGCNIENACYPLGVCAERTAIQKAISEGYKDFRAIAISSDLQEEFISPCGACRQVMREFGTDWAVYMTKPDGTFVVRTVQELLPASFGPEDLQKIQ

Row | Ki [µM] | Compound
1 | 4 | O=C1NC=CCN1C1O[C@H](CO)[C@@H](O)[C@H]1O (stereo partly drawn)
2 | 100 | O=c1nc(CO)ccn1C1O[C@H](CO)[C@@H](O)[C@H]1O (stereo partly drawn)
3 | 10 | OCC1NC=Nc2c1ncn2[C@@H]1O[C@H](CO)[C@@H](O)[C@H]1O (stereo partly drawn)
4 | 0.4 | O=C1NC(CO)C=CN1C1O[C@H](CO)[C@@H](O)[C@H]1O (stereo partly drawn)
5 | 20 | O=C1NC(C(O)O)CCN1C1O[C@H](CO)[C@@H](O)[C@H]1O (stereo partly drawn)
6 | 4 | O=C1NCC=CN1[C@@H]1O[C@H](CO)[C@@H](O)[C@H]1O

Row | Compound | Ki [µM]
7 | OC[C@H]1O[C@@H](n2cnc3cncnc32)[C@H](O)[C@@H]1O [NEBULARINE] | 10

Target: T1, Adenosine deaminase (Mus musculus, UniProt P03958)
T1 sequence (P03958 whole entry): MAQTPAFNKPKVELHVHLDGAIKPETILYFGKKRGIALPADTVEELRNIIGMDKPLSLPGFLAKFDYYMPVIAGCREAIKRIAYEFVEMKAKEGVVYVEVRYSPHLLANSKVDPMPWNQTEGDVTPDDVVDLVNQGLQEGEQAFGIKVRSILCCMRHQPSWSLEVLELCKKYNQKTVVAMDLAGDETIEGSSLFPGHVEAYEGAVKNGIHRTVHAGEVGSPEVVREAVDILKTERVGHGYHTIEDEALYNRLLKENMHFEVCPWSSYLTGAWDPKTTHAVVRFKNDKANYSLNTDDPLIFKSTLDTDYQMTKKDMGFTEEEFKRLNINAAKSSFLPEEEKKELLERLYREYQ
Experiment: Compound was tested for the inhibitory constant for adenosine deaminase (ADA)

Row | Ki [µM] | Compound
8 | 1 | O=c1ncccn1[C@@H]1O[C@H](CO)[C@@H](O)[C@H]1O [ZEBULARINE]

From ChEMBL document CHEMBL1123331, “Synthesis of pyrimidin-2-one nucleosides as acid-stable inhibitors of cytidine deaminase” (J Med Chem, 1986)
